Data from patent US20260034116A1, “CANCER COMBINATION THERAPY INCLUDING A BCL-2 INHIBITOR” (RYVU THERAPEUTICS S.A., priority 2022, published 2026).
pIC50: −log10 of the molar value. Where two headings read alike, the source gives them in different places.

Columns and labels:
[1] = test system: AML; settings: single agent in AML treatment; cited from earlier work
[2] = test system: KG1 cells (FLT3 wt); assay: in vitro standard cytotoxicity assay (MTS), Ven and/or 5-Aza 48 h followed by Men 24 h; format: cell-based, human; settings: same time points as combination; for pIC50: read-out: IC50 dose level
Protocol: (§1) In an in vitro standard cytotoxicity assay, three AML cell lines (KG1 [FLT3 wt], MV4-11 [FLT3 ITD] and MOLM-13 [FLT3 ITD]) were treated with Ven and/or 5-Aza for 48 hours, followed by Men treatment for additional 24 hours. […] In MOLM13 cells (FLT3 ITD), the CI of the triple combination was similar to the CIs of the Men-Ven and the VenAza combinations (see Table 3).
(§2) Human acute myeloid leukemia cell lines KG-1, MV4-11 and MOLM-13 were obtained from DSMZ, Braunschweig, Germany (ACC14, ACC102 and ACC554). KG-1 and MV4-11 cells were cultured in RPMI 1640 medium (Gibco, Life Technologies, Carlsbad, CA, USA) supplemented with 10% fetal bovine serum (FBS) (Sigma, Saint Louis, CA, USA). MOLM-13 cells were grown in RPMI with 20% FBS. All cells were incubated at 37° C., 5% CO2, 80% relative humidity. The human acute myeloid leukemia cell line MOLM-16 was obtained from DSMZ, Braunschweig, Germany (cell line number ACC-555. MOLM-16 cells were grown in RPMI with 20% FBS (Sigma, Saint Louis, CA, USA). Cells were incubated at 37° C., 5% CO2, 80% relative humidity.
(§3) Men (alternatively referred to as “MEN1703”, in the HCI-salt form (CAS number 2769008-22-) with the IUPAC name 5,6-dibromo-4-nitro-2-(piperidin-4-yl)-1-(propan-2-yl)-1H-1,3-benzodiazole-4-amine hydrochloride (batch no. A/2201/24/1)), synthesized at Aptuit (VR) and Venetoclax (alternatively referred to as “Ven” or “ABT-199”, ChemCruz no. SC-472284A) were dissolved in DMSO, divided into aliquots and stored at-80° C. until use. Stock solutions were added at appropriate concentration in culture medium before the addition to cells. […] A stock solution was added at appropriate concentration in culture medium before the addition to cells.
(§4) For cytotoxicity studies cells were seeded at appropriate density (50.000 cells/well) prior to addition of Ven and 5-Aza at day 0. 5-Aza was added every 24 hours due to degradation (Hollen-bach PW, 2010 and Chang E, 2016). Then, after 48 hours, Men was added to cultured cells for the final 24 h (overall, a period of 72 h was tested). The concentration range was previously identified in single agent cytotoxic assay for the same time points in order to include in the combination experiment the IC10, IC25, IC50 and IC75 values for each drug and for each AML cell lines (see Tables 1 to 3). All possible combinations were assessed: Men+Ven, Ven+5-Aza, Men+5-Aza and men+5-Aza+Ven (mav). After 72 hours, CellTiter 96 Aqueous One Solution Reagent (MTS) (Promega, Madison. WI, USA) was added to assess the cell viability. […] was measured 4h later using Tecan Infinite M200 (Tecan Trading AG, Switzerland), recording absorbance at 490 nm. Quantitative measurement of synergism/antagonism was evaluated with Combination Index (CI) on the Fraction affected (Fa) using CompuSyn (ComboSyn, Inc. Paramus, NJ, USA) (Chou TC, 2006).

[3] = test system: MOLM-13 cells (FLT3 ITD); assay: as above; format: cell-based, human; settings: MOLM13 cells, single agent cytotoxic assay, same time points as combination; for pIC50: read-out: IC50 dose level
Protocol: as §1, §2, §3, §4

[4] = test system: MV4-11 cells (FLT3 ITD); assay: as above; format: cell-based, human; settings: single agent cytotoxic assay, same time points as combination; for pIC50: read-out: IC50 dose level
Protocol: as §1, §2, §3, §4

[5] = test system: MOLM-13 cells (FLT3 ITD); assay: in vitro standard cytotoxicity experiment (MTS), 72 h, MEN with S65487 or AZD4320; format: cell-based, human; settings: single agent
Protocol: (§5) In an in vitro standard cytotoxicity experiment, two AML cell lines (MOLM-13 [FLT3 ITD] and MV4-11 [FLT3 ITD]) were treated for 72 hours with MEN and S65487 either as a single agent or in combination.
(§6) In an in vitro standard cytotoxicity experiment, two AML cell lines (MOLM-13 [FLT3 ITD] and MV4-11 [FLT3 ITD]) were treated for 72 hours with MEN and AZD4320 either as a single agent or in combination.
(§7) Human acute myeloid leukemia cell lines MV4-11 and MOLM-13 were obtained from DSMZ, Braunschweig, Germany (ACC102 and ACC554). MV4-11 cells were cultured in RPMI 1640 medium (Gibco, Life Technologies, Carlsbad, CA, USA) supplemented with 10% fetal bovine serum (FBS) (Sigma, Saint Louis, CA, USA). MOLM-13 cells were grown in RPMI with 20% FBS. All cells were incubated at 37° C., 5% CO2, 80% relative humidity.
(§8) MEN1703 (alternatively referred to as “Men”, “MEN”, “MEN1703” or “SEL24/MEN1703”), in the HCl-salt form (CAS number 2769008-22-) with the IUPAC name 5,6-dibromo-4-nitro-2-(piperidin-4-yl)-1-(propan-2-yl)-1H-1,3-benzodiazole-4-amine hydrochloride (batch no. A/2201/24/1)), synthesized at Aptuit (VR); AZD4320 from MedChem Express, Monmouth Junction, NJ, USA, batch no. 64354) and S65487 from MedChem Express, Monmouth Junction, NJ, USA were dissolved in DMSO, divided into aliquots and stored at −80° C. until use. Stock solutions were added at appropriate concentration in culture medium before the addition to cells.
(§9) For cytotoxicity studies cells were seeded at appropriate density (50,000 cells/well) prior to addition of MEN and Quiz at day 0. The concentration range was previously identified in single agent cytotoxicity assays for the same time points in order to include in the combination experiment the IC10, IC25, IC50 and IC75 values for each drug and for each AML cell lines (see Tables 4 to 7). After 72 hours, CellTiter 96 Aqueous One Solution Reagent (MTS) (Promega, Madison. WI, USA) was added to assess the cell viability. […] was measured 4 h later using Tecan Infinite M200 (Tecan Trading AG, Switzerland), recording absorbance at 490 nm. Quantitative measurement of synergism/antagonism was evaluated with Combination Index (CI) on the Fraction affected (Fa) using CompuSyn (ComboSyn, Inc. Paramus, NJ, USA) (Chou TC, 2006).

[6] = test system: MV4-11 cells (FLT3 ITD); assay: as above; format: cell-based, human; settings: single agent
Protocol: as §5, §6, §7, §8, §9

[7] = test system: broad panel of AML cell lines in xenograft models; settings: in vivo; cited from earlier work
[8] = Homo sapiens, KG-1, single agent cytotoxic assay

Compound | pIC50 [2, 8] | IC10 dose level ([2]; single agent cytotoxic assay) | IC25 dose level ([2]; single agent cytotoxic assay) | IC75 dose level ([2]; single agent cytotoxic assay) | pIC50 ([3]; Homo sapiens, MOLM-13) | IC10 dose level [3] | IC25 dose level [3] | IC75 dose level [3] | pIC50 ([4]; Homo sapiens) | IC10 dose level [4] | IC25 dose level [4] | IC75 dose level [4] | IC10 [5] | IC25 [5] | pIC50 [5] | IC75 [5] | IC10 [6] | IC25 [6] | pIC50 [6] | IC75 [6] | further results
CC1(C)CCC(CN2CCN(c3ccc(C(=O)NS(=O)(=O)c4ccc(NCC5CCOCC5)c([N+](=O)[O-])c4)c(Oc4cnc5[nH]ccc5c4)c3)CC2)=C(c2ccc(Cl)cc2)C1 [Ven, Venetoclax] | 5.78 | 180 nM | 550 nM | 4950 nM | 6.35 | 12 nM | 75 nM | 2770 nM | 8.52 | 0.276 nM | 0.829 nM | 7 nM | – | – | – | – | – | – | – | – | safety [1]: safe
Nc1ncn([C@@H]2O[C@H](CO)[C@@H](O)[C@H]2O)c(=O)n1 [Aza, 5-Azacitidine] | 6.12 | 97 nM | 270 nM | 2150 nM | 6.02 | 83 nM | 280 nM | 3280 nM | 6.19 | 140 nM | 300 nM | 1410 nM | – | – | – | – | – | – | – | – | –
CN(CCO)CC[C@H](CSc1ccccc1)Nc1ccc(S(=O)(=O)NC(=O)c2ccc(N3CCC([C@@H](O)c4ccccc4-c4ccc(Cl)cc4)CC3)cc2)cc1S(=O)(=O)C(F)(F)F [AZD4320] | – | – | – | – | – | – | – | – | – | – | – | – | 3.4 nM | 11 nM | 7.43 | 120 nM | 0.65 nM | 1.3 nM | 8.57 | 5.5 nM | –
CC(C)n1c(C2CCNCC2)nc2c([N+](=O)[O-])c(Br)c(Br)cc21 [Men, 5,6-dibromo-4-nitro-2-(piperidin-4-yl)-1-(pro-pan-2-yl)-1H-1,3-benzodiazole] | – | 151 nM | 293 nM | 1103 nM | – | 40 nM | 280 nM | 10880 nM | – | 6 nM | 48 nM | 2770 nM | 87.29 nM | 211.1 nM | 6.29 | 1234 nM | 13.15 nM | 35 nM | 7.03 | 248.6 nM | growth of AML cell lines in xenograft models [7]: inhibit the growth of a broad panel of AML cell lines in xenograft models; pIC50 ([2]; single agent cytotoxic assay): 6.24; pIC50 [3]: 5.76; pIC50 [4]: 6.44
Cc1c(N(C(=O)c2cc(-c3cc(Cl)ccc3C(=O)N3Cc4ccccc4C[C@H]3CN3CCOCC3)n(C)c2C)c2ccc(O)cc2)cc(C#N)n1C [S65487] | – | – | – | – | – | – | – | – | – | – | – | – | 14.5 nM | 57 nM | – | 880 nM | 2.5 nM | 6.6 nM | – | 48 nM | pIC50 ([5]; Homo sapiens): 6.65; pIC50 ([6]; Homo sapiens): 7.74
